Format in all cases: physicochemical
Data set [1] can be described thus: Log D7.4 test, n-octanol/aqueous (pH=7.4) shake flask method. On the procedure: The detailed procedure is summarized below. • 1. Pre-equilibrate n-octanol and aqueous buffer by adding 10 mL n-octanol and 10 mL aqueous buffer into a glass vial and keep it rolling for 24 h. The mutually saturated n-octanol and aqueous buffer are obtained after phase separation. • 2. Weigh approximately 1.0 mg sample into a 3-mL glass vial with 1.0 mL of saturated n-octanol inside (obtained in step 1 above) and accelerate dissolution by ultrasonication. • 3. Add 1.0 mL of complementary saturated aqueous buffer into the vial. • 4. Prepare samples in triplicate. Seal the glass vial and mix on a rotary mixer at 25° C. for 24 h. • 5. The phases are separated after rolling. • 6. The concentrations of the compound in each phase are determined by HPLC. Samples in n-octanol phase are diluted 10 times by adding 100 μL of sample solution and 900 µL of ACN/H2O (v/v, 3:1) diluent and mixed well. • 7. Distribution coefficient, referred to as Dow, is calculated as the concentration of the test compound (both ionized and un-ionized) in the n-octanol phase divided by the corresponding concentration in the aqueous phase.

Data set [2] in a line: Equilibrium solubility in pH buffers (3.0-8.0), 20% captisol and water. The conditions noted are these: H2O, RT, 24 hrs. On the procedure: Additional solids were added into the sample to generate suspension if clear solution obtained. The suspension was equilibrated via stirring (1000 rpm). The suspension was centrifuged to obtain precipitate and supernatants.
Solubility and pH were tested for the supernatants after filtration, and isolated precipitate was tested by XRPD.
(§1) • 1. pH=3.0 buffer (50 mM HCl+KCl): Weigh 365.39 mg KCl into a 100 mL volumetric flask (VF), and add 0.1 mL 1M HCl into the VF, and dilute to volume with water. • 2. pH=4.0 buffer (50 mM citrate): Weigh 56.74 mg citric acid and 60.18 mg trisodium citrate into a 10 mL volumetric flask, and dilute to volume with water. • 3. pH=5.0 buffer (50 mM citrate) Weigh 11.12 mg citric acid and 95.38 mg trisodium citrate into a 10 mL volumetric flask, and dilute to volume with water. • 4. pH=6.0 buffer (50 mM citrate) Weigh 11.04 mg citric acid and 130.2 mg trisodium citrate into a 10 mL volumetric flask, and dilute to volume with water. • 5. pH=6.0 buffer (50 mM phosphate) Weigh 8.7 mg Na2HPO4 and 52.6 mg NaH2PO4 into a 10 mL volumetric flask, and dilute to volume with water. • 6. pH=7.0 buffer (50 mM phosphate) Weigh 23.47 mg Na2HPO4 and 43.34 mg NaH2PO4into a 10 mL volumetric flask, and dilute to volume with water. • 7. pH=8.0 buffer (50 mM phosphate) Weigh 31.64 mg Na2HPO4 and 67.18 mg NaH2PO4into a 10 mL volumetric flask, and dilute to volume with water.

Data set [3] is described as follows: pKa test, potentiometric method (pH-metric pKa). The conditions noted are these: MeOH cosolvent, Yasuda-Shedlovsky extrapolation. On the procedure: (§2) The spectrophotometric method (UV-metric pKa) and potentiometric method (pH-metric pKa) were used for pKa test of Compound (I) freeform.
2. For pH-metric pKa, the pKa values were determined from an examination of the shape of the resultant titration curves and fitting a suitable theoretical model for the compound's ionization behavior onto the titration data.
(§3) The psKa values were extrapolated to 0% organic content using the Yasuda-Shedlovsky extrapolation procedure for pKa values.

The nature of data set [4]: Equilibrium solubility in pH buffers (pH 4.0-6.0) with pH adjustment. The conditions noted are these: pH = 4.0 buffer (50 mM citrate), RT, with pH adjustment. On the procedure:
In details, ˜5 mg of solids were suspended into 1 mL of each medium with dosing conc. at ˜5 mg/mL. Additional solids were added into the sample to generate suspension if clear solution was obtained. The suspension was equilibrated via stirring (1000 rpm) for 24 hours. The pH of the suspension was adjusted when the final pH shifted above 0.3, and the samples were stirred for another 1.5 hours after pH adjustment. The suspension was centrifuged to obtain precipitate and supernatants. Solubility, purity and pH were tested for the supernatants after filtration, and isolated precipitate was tested by XRPD.
as §1

A short description of data set [5]: pKa test, spectrophotometric method (UV-metric pKa). On the procedure: as §2
1. For UV-metric pKa, the pKa values were determined by monitoring the change in UV absorbance with pH as the compound undergoes ionization.
as §3

Data set [6] in a line: Thermodynamic relationships study: slurry competition in acetone/H2O systems. The conditions noted are these: RT. On the procedure:
Slurry competition was conducted in acetone/H2O systems with various water activities (0.0-1.0). […] Solids were separated and tested by XRPD.
(§4) To measure the solubility of freeform in acetone/H2O systems with various water activities, the above experiments were re-performed with addition of aw=0.3 acetone/H2O system. The suspension sample was centrifuged to obtain precipitate and supernatants. Solubility was tested for the supernatants after filtration, and isolated precipitate was tested by XRPD.
Solids were separated and tested by XRPD.

A short description of data set [7]: Solubility of freeform in acetone/H2O systems with various water activities. The conditions noted are these: thermodynamic from solid. On the procedure:
as §4

Data set [8] is described as follows: DVS (dynamic vapor sorption) moisture uptake. On the procedure: (FIG. 5). Sample weight decreased rapidly when humidity decreased from 10% to 0%, which might be caused by loss of crystalline water.
DVS was measured via a SMS (Surface Measurement Systems) DVS Intrinsic.

Data set [9] can be described thus: Formulation solution stability experiments at 5° C. The conditions noted are these: thermodynamic from solid; for solubility at 2 days: aqueous buffer, 5° C., read-out: citrate solubility (supernatant concentration). On the procedure: The five formulations are shown in Table 7-2, and the characterization results are summarized in Example 7. The procedure is summarized below. • 1. […] Add about 149 mg citric acid into the volumetric flask of formulation 1/2/3/4. • 3. Add about 2037 mg of the corresponding sugar into the volumetric flask of formulation 2/3/4. […] Dilute to volume with water for formulation 1/2/3/4. • 5. Dilute to volume with pH=4.0 citrate/phosphate buffer for formulation 5. […] Sonicate the samples for about 2 mins, and filter with 0.45 µm filter to obtain a clear solution. • 7. Fill and seal about 0.7 mL solutions into 32 separate HPLC vials per each formulation and store under corresponding conditions.
The stability samples were stored at 5° C., 25° C., 40° C. and 60° C. for 28 days. After 1 day, 3 days, 7 days, 14 days and 28 days storage, the stability samples at 25° C., 40° C. and 60° C. were taken out for HPLC and pH tests. After 28 days storage, the stability samples at 5° C. were taken out for HPLC and pH tests.
Some of the stability samples at 5° C. became a suspension after storage for 37 days. The samples were then stirred (1000 rpm) at 5° C. for two days, resulting in all samples becoming a suspension. Three of the samples under each condition were characterized to determine the identity of precipitate, solubility of citrate salt at 5° C., and stability at 5° C. • 1. Sample 1 of formulations 1/2/3/4/5 after stirring was isolated, XPRD/^1H NMR of the solid was obtained, and purity/assay/concentration/pH of the supernatant were tested. • 2. Sample 2 of formulations 1/2/3/4/5 after stirring was stored at RT for about 1 hour, and the solid dissolved. Purity/assay/concentration of the solution was tested. • 3. Sample 3 of formulations 1/2/3/4/5 after stirring was sonicated at RT for about 2-3 mins, and the solid dissolved.

Data set [10] in a line: Solubility profile of freeform Type D in citrate buffers. The conditions noted are these: aqueous citrate buffer, aqueous buffer; citrate salt prepared in situ, summary statement; read-out: aqueous solubility. On the procedure:
Additional solids were added into the sample to generate suspension if clear solution was obtained. The suspension was equilibrated via stirring (1000 rpm) for 24 hours. The suspension was centrifuged to obtain precipitate and supernatants. Solubility and pH were tested for the supernatants after filtration, and the isolated precipitate was tested by XRPD.

We go through 3 molecules from patent US20240307374A1, “FORMULATION OF FURIN INHIBITOR FOR INHALATION” (BP ASSET V, INC., priority 2021, published 2024).

Values after ≈ are worked out from the molar mass of the structure shown. Values joined by “and” are separate entries in the source; they are usually repeats but may differ in a detail not shown here. Identical values can stand only once. Counter-ions that a name gives are not always drawn.

As usually defined, the pKa is the pH at which an ionisable group is half protonated.

On to `CC(=O)NCC1CCN(Cc2cc(Oc3ccc(N4CCN(CCC(=O)O)CC4)nc3)nc(-c3cc(Cl)cc(Cl)c3)c2)CC1` [Compound (I) freeform], for which the logD at 24 h in [1] (n-octanol/aqueous buffer (pH 7.4), n-octanol/aqueous pH 7.4, three runs, read-out: Average of LogD7.4) was 2.23. Besides, in data set [1] (n-octanol/aqueous pH 7.4, single runs 1-3), the LogD7.4 was 2.24 and 2.23. For the same molecule, the “Average of LogD7.4” value in data set [1] (n-octanol/aqueous pH 7.4, three runs) was found to be 2.23. For the same molecule, in data set [1] (runs 1-3), the “Final pH in aqueous phase” value was determined as 7.3. In addition, the “Concentration, Oil (n-octanol phase)” value in data set [1] (shake flask, 25° C., 24 h, runs 1-3) is 1140 µg/mL and 1100 µg/mL and 1070 µg/mL. Besides, the “Concentration, Aqueous” value in [1] (shake flask, pH 7.4 buffer, 25° C., 24 h, runs 1-3) was 7 µg/mL and 6 µg/mL. In addition, the figures for the “S: solubility” value in data set [2] and in [4] were 0.02 mg/mL and over 36.9 mg/mL, respectively. Further, the pKa was 3.41 in [3] (read-out: pKa 1, pH-metric); 6.99 in data set [3] (read-out: pKa 2, pH-metric); 7.56 in data set [3] (read-out: pKa 3, pH-metric); 1.84 in data set [5] (36.4% MeOH in water, MeOH concentration of 36.4%, read-out: psKa (apparent pKa 1), UV-metric); 1.56 in [5] (48.2% MeOH in water, MeOH concentration of 48.2%, read-out: psKa (apparent pKa 1), UV-metric); 1.27 in data set [5] (63.9% MeOH in water, MeOH concentration of 63.9%, read-out: psKa (apparent pKa 1), UV-metric). Further, the pKa in data set [5] (MeOH cosolvent, Yasuda-Shedlovsky extrapolation, psKa out of effective pH range 2-12, reference only, read-out: pKa 1, UV-metric) is 2.21; in data set [5] (MeOH cosolvent, Yasuda-Shedlovsky extrapolation, read-out: pKa 2, UV-metric) it was 6.98; in data set [5] (MeOH cosolvent, Yasuda-Shedlovsky extrapolation, read-out: pKa 3, UV-metric), 7.68.
Regarding `CC(=O)NCC1CCN(Cc2cc(Oc3ccc(N4CCN(CCC(=O)O)CC4)nc3)nc(-c3cc(Cl)cc(Cl)c3)c2)CC1` [Freeform Type B], in data set [6], the “water activity (aw) at which the form was obtained” value was “below 0.2”. The solubility at 2 days is 0.81 mg/mL (≈ 1.26 mM) in data set [7] (acetone (aw 0), organic solvent or mixture, Acetone, aw 0, RT) and 3.96 mg/mL (≈ 6.18 mM) in data set [7] (acetone/H2O (986:14), aw 0.2, organic solvent or mixture, Acetone/H2O (986:14), aw 0.2, RT). In addition, in data set [8] (25° C., from 0% RH to 80% RH), the “Moisture Uptake (DVS)” value is reported as 6.3%. Moreover, the hygroscopicity result in data set [8] (European pharmacopoeia 5.0 criteria, from DVS 0-80% RH at 25° C.) is recorded as “hygroscopic”. Also, the “form change after DVS test (XRPD)” value in data set [8] (XRPD before and after DVS) was “No form change”.
Consider `CC(=O)NCC1CCN(Cc2cc(Oc3ccc(N4CCN(CCC(=O)O)CC4)nc3)nc(-c3cc(Cl)cc(Cl)c3)c2)CC1` [citrate salt], for which the solubility at 2 days in data set [9] (formulation solution with sugar (supernatant), presence of sugars, lowest value) was 10.4 mg/mL; in [9] (formulation solution without sugars (supernatant), without sugars), 16.9 mg/mL. Moreover, in data set [9] (formulation solutions 1/2/3/4/5, aqueous buffer, rt, all solids dissolved once warmed up, read-out: solubility of citrate salt), the solubility is over 20 mg/mL. The solubility at 24 h in data set [10] was over 50 mg/mL.
